The values below come from US7166297B2, “Lipid-based drug delivery systems against parasitic infections” (LiPlasome Pharma A/S, priority 2000, dated 2007).

A short description of data set [1]: Calcein release across target membrane on adding lyso-phospholipid and fatty acid in the absence of PLA2. The following applies: 25 μM target membranes, pH=7.5, 39° C. As for the experimental part:
FIG. 13. […] The concentration of the target membranes is 25 μM in a HEPES buffer with pH=7.5 at a temperature of 39° C.
The experimental model system consists of a negatively charged liposome carrier and a model target membrane. The carrier is a 100 nm unilamellar liposome made of dipalmitoyl phosphatidylcholine lipids (DPPC) with a small amount (2.5 mol %) of negatively charged lipid of the type dipaimitoyl phosphatidylethanolamine (DPPE)-PEG2000. The target membrane is another liposome made of 1,2-O-dioctadecyl-sn-glycero-phosphatidylcholine (D-O-SPC) which is a phospholipid where the acyl linkages of the stearoyl chains are ether bonds. In contrast to DPPC, D-O-SPC is inert towards PLA2-catalysed hydrolysis thereby mimicking the stability of an intact target cell membrane toward degradation by its own enzymes. This experimental assay, which permits simultaneous as well as separate investigation of the effect of destabilisers at the carrier liposomes and the effect of enhancers at the target membrane, involves entrapment of a water-soluble fluorescent calcein model drug in a self-quenching concentration, in the interior of the non-hydrolysable target liposome, rather than in the carrier liposome. […] The permeation of calcein across the D-O-SPC target membrane is subsequently monitored by the increase in fluorescence. […]

The subject of data set [2] is human red blood cells (RBC). Description: Hemolysis assay. As to conditions: low concentrations, 37° C., 20 hours.
Description: Briefly, each sample was serially diluted with phosphate buffered saline (PBS), and 0.5 ml of each dilute suspension was mixed with 0.5 ml washed human red blood cells (RBC) [4% in PBS (v/v)]. Sample and standard were placed in a 37° C. incubator and agitated for 20 hours. Tubes were centrifuged at low speed (2000×G) for 10 minutes and 200 μl of the supernatant was quantitated by absorbance at 550 nm. 100 percent hemolysis was defined as the maximum amount of hemolysis obtained from the detergent Triton X-100.
The lipids were hydrated in phosphate buffered saline (PBS). 1-O-octadecyl-2-O-methyl-sn-glycero-3-phosphocholine (ET-18-OCH3) in PBS was included in the assay as a reference.
Briefly, each sample was serially diluted with PBS, and 0.5 ml of each dilute suspension of 1-O-DPPC liposomes were mixed with 0.5 ml washed human red blood cells (RBC) [4% in PBS (v/v)]. For controls, 0.5 ml of the red blood cell suspension was mixed with either 0.5 ml buffer solution (negative hemolysis control) or 0.5 ml water (positive hemolysis control). Samples and standard were placed in a 37° C. incubator and agitated for 20 hours. Tubes were centrifuged at low speed (2000×G) for 10 minutes to form RBCs pellets. 200 μl of the supernatant was quantified by absorbance at 550 nm using a Perkin-Elmer 320 scanning spectrophotometer. […]
Data set [3] has as its target T1, Snake venom PLA2 (Agkistrodon piscivorus piscivorus) (Agkistrodon piscivorus piscivorus, UniProt P51972).
T1 construct: Purified snake venom PLA2 (Agkistrodon piscivorus piscivorus) was a generous gift from dr; R. L. Biltonen; tissue gift from dr; host or cells: snake venom of Agkistrodon piscivorus piscivorus
T1 sequence (P51972 1-123): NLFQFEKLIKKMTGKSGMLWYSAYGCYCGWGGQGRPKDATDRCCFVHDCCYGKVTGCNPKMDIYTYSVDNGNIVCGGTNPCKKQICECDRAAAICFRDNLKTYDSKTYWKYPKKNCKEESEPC
The experiment in a line: Model system: PLA2-controlled calcein release across D-O-SPC target membrane with DPPC carrier liposomes. The format is biochemical.
Description: The temperature is 37° C. […] The percentage of calcein released is determined as % Release=100 (IF(t)−IB)/(IT−IB), where IF(t) is the measured fluorescence at time t after addition of the enzyme, IB is the background fluorescence, and IT is the total fluorescence measured after addition of Triton X-100 which leads to complete release of calcein by breaking up the target liposomes. […] The concentration of the target and carrier liposomes are 25 μM, and PLA2 is added in a 25 nM concentration in a HEPES buffer with pH=7.5.
The experimental model system consists of a negatively charged liposome carrier and a model target membrane. The carrier is a 100 nm unilamellar liposome made of dipalmitoyl phosphatidylcholine lipids (DPPC) with a small amount (2.5 mol %) of negatively charged lipid of the type dipaimitoyl phosphatidylethanolamine (DPPE)-PEG2000. The target membrane is another liposome made of 1,2-O-dioctadecyl-sn-glycero-phosphatidylcholine (D-O-SPC) which is a phospholipid where the acyl linkages of the stearoyl chains are ether bonds. In contrast to DPPC, D-O-SPC is inert towards PLA2-catalysed hydrolysis thereby mimicking the stability of an intact target cell membrane toward degradation by its own enzymes. […] The permeation of calcein across the D-O-SPC target membrane is subsequently monitored by the increase in fluorescence. […]

Data set [4] has as its target T2, phospholipase A2 (A. piscivorus piscivorus) (Agkistrodon piscivorus piscivorus, UniProt P51972).
T2 sequence (P51972 1-123): T1 sequence (P51972 1-123)
Description: HPLC chromatograms illustrating the effect of phospholipase A2 hydrolysis of micelles composed DSPE-PEG750 (0.150 mM). The chromatograms show the amount of stearic acid generated before (solid line) phospholipase A2 (A. piscivorus piscivorus) was added to the micelle suspension and the amount (dashed line) of DSPE-PEG750 after the lag-burst. The dotted line show pure stearic acid (0.4 mM). The percentage hydrolysis was calculated on basis of the integrated area of the stearic acid standard (115850 units) and the integrated area of the sample (45630 units).
The hydrolysis of micelles composed DSPE-PEG750 was followed by analysis of the amount of stearic acid generated. The catalytic reaction was initiated by adding 8.9 μL of a 42 μM PLA2 (150 nM) stock solution to 2.5 ml a thermostated lipid suspension of DSPE-PEG750 (0.150 mM) equilibrated at 45° C. for 600 seconds prior to addition of PLA2. The characteristic burst behavior of PLA2 towards the micelles is signaled by a sudden increase in the intrinsic fluorescence from PLA2 at 340 nm after excitation at 285 nm followed by a concomitant decrease in the 90° light scattering from the lipid suspension (Hønger et al., Biochemistry 35, 9003–9006). Samples for HPLC analysis of the amount of stearic acid generated were taken before adding PLA2 and 100 sec after the observed lag-time.

Take `CCCCCCCCCCCCCCCC(=O)O` [fatty acid, palmitic acid]: the “rate of calcein release across target membrane (in words)” value in data set [1] is on record as “increased rate of calcein release”.

Turning to `CCCCCCCCCCCCCCCCCCOC[C@H](COP(=O)([O-])OCC[N+](C)(C)C)OC` [ET-18-OCH3], the “hemolysis (in words)” value in data set [2] is recorded as “significant degree of hemolysis”.

For the compound `CC(C)CCC[C@@H](C)[C@H]1CC[C@H]2[C@@H]3CC=C4C[C@@H](O)CC[C@]4(C)[C@H]3CC[C@]12C` [cholesterol], the “effect on extracellular PLA2 activity (in words)” value in data set [3] (≈3 mol % incorporated into liposomes) is given as “activates”; in data set [3] (≈20 mol % incorporated into liposomes, data not shown), “deactivated”.

Regarding “di-octadecanoyl-sn-glycero-3-phosphoethanolamine-N-[methoxy(polyethylene glycol)-750 [DSPE-PEG750]”, in data set [4] (0.150 mM DSPE-PEG750, 150 nM PLA2, 45° C.), the “percent hydrolysis of DSPE-PEG750” value is 100%. In addition, the lag time in data set [4] (45° C., 150 nM PLA2) was 10 s.
